Laboratory results taken from patent US12215106B2, “Pharmaceutical compounds and therapeutic methods” (RUTGERS, THE STATE UNIVERSITY OF NEW JERSEY, priority 2018, dated 2025).
Where a name gives a salt, the structure may show the parent alone. Read-outs that look alike come from different tables or passages of the source.

How the values were obtained:
[1] = test system: glioblastoma patient derived spheres; experiment: MTT assay, cell viability of patient derived GBM spheres; type: cell-based; conditions: Homo sapiens
From the text: To generate primary patient-derived GBM models for testing small molecule inhibitors, fresh primary tissues were received from patients undergoing surgical resection of WHO grade IV gliomas at Robert Wood Johnson University Hospital (RWJUH) under an approved IRB protocol. De-identified primary human GBM samples were delivered to the laboratory. Cells were obtained through mechanical dissociation of the tumor tissue using a blade and plated in DMEM/F12 medium (Gibco) in the presence of B-27 Supplement (Gibco, #17504-044), 20 ng/ml of human recombinant EGF (Gibco, #PHG0311L) and human recombinant FGF (Peprotech, #AF-100-18B). The following day, the culture was collected, incubated with Accutase (Gibco, #A11105-01) at 37° C. and passed through a 26G×⅜ needle (BD Precision Glide, #305110) to obtain a single cell suspension and re-plated in the same supplemented medium. Cells were cultured at low (5-6) passages in serum-free sphere 3D culture with mitogens that preserve the clonogenic stemness phenotype. […] different primary GBM cells (GBM #46, GBM #50, and GBM #76) were tested for cell viability after treatment with the inhibitors. Cell viability was measured using MTT assay. Briefly, one thousand cells per well were seeded in 96-well plates and exposed to drug in a total of 200 uL media. After 72 hours, 50 uL of stock concentration of 2.5 mg/mL 3-(4,5-dimethylthiazol-2-yl)-2,5-diphenyltetrazolium bromide (MTT) (Sigma, #M2128) dissolved in PBS was added to wells and incubated at 37° C. for 4 hours; read in a […] plate reader at 570 nm and compared to DMSO and untreated cells. The IC50 (defined as the concentration at which 50% of the cells were viable) was determined from the curve.
Novel compounds were synthesized and examined for their effectiveness on inhibiting the growth of patient derived GBM sphere cells that are more enriched in cancer stem-like cells (CSCs). An IC50 was established by measuring cell viability using a MTT assay when compared to vehicle control (DMSO) (FIG. 1-6).

STAT1 = experiment: Western blotting of STAT1 protein levels in GBM spheres; type: cell-based, human; conditions: 72 hours
Experimental: GBM cells were treated with DMSO or different concentrations of the test compounds for 72 hours. Cells were lysed in Cell Lysis Buffer (Cell Signaling, #9803) supplemented with Protease Inhibitor Cocktail (Sigma, #P8340), sonicated briefly while on ice and spun down for 30 minutes at 4° C., after which the supernatant was collected. For each sample, 2 uL of lysate was mixed well into 198 uL de-ionized water. Next, 10 uL of this diluted sample was added to a well in a 96 well plate in quadruplets and mixed with Protein Assay Dye Reagent Concentrate (Bio-Rad, #500-0006) (which was diluted 1:5 with water). BSA standards of 25 ng, 50 ng, 100 ng, 200 ng and 250 ng were also used to the plate and mixed with the reagent. The plate was read in a plate reader at 600 nm and samples were calibrated to the standards to determine the concentration of protein. Using the NuPAGE system (Invitrogen), 25 ug of protein was mixed with NuPAGE LDS 4× Sample Buffer (#NP0007), NuPAGE 10× Reducing Agent (#NP0004) and water, mixed well and heated at 96° C. for 15 minutes to denature the protein. The samples were then loaded into 4-12% Bis-Tris gels (Novex (Invitrogen), #0323) with a protein ladder (Novex (Invitrogen) Sharp Pre-stained protein ladder, #57318) and run at 100-120V for about 2 hours with NuPAGE 20×SDS MES Running Buffer (#NP0002) diluted with water. Next, the gel was taken out and loaded into a NuPAGE transfer cassette with a polyvinylidene membrane with NuPAGE 20× Transfer Buffer (#NP0006-1) diluted with water and methanol. Proteins were transferred for 1 hour at 30V at room temperature. Blocking was performed using the Millipore SNAP i.d. Protein Detection system in 0.25% non-fat dry milk in 0.1% Tween in PBS (PBST). […] Protein signals were detected using ECL Western Blotting Substrate (Pierce, #32106) and filmed. […]

BMI1 = experiment: Western blotting of BMI1 protein levels in GBM spheres; type: cell-based, human; conditions: for BMI1 levels: GBM spheres, 72 hours, Western blotting
Experimental: Different GBM cells were treated with DMSO or different concentrations of test compounds for 72 hours. Cells were lysed in Cell Lysis Buffer (Cell Signaling, #9803) supplemented with Protease Inhibitor Cocktail (Sigma, #P8340), spun down for 30 minutes at 4° C., after which the supernatant was collected at every time point indicated. Western blotting analysis was performed on all samples as described above. BMI1 loss started at 6-12 hours, coinciding with an upper shift and hyper-phosphorylation of BMI1 at 12-24 hours and complete depletion at 72 hours.
GBM cells were treated with DMSO or different concentrations of the test compounds for 72 hours. Cells were lysed in Cell Lysis Buffer (Cell Signaling, #9803) supplemented with Protease Inhibitor Cocktail (Sigma, #P8340), sonicated briefly while on ice and spun down for 30 minutes at 4° C., after which the supernatant was collected. For each sample, 2 uL of lysate was mixed well into 198 uL de-ionized water. Next, 10 uL of this diluted sample was added to a well in a 96 well plate in quadruplets and mixed with Protein Assay Dye Reagent Concentrate (Bio-Rad, #500-0006) (which was diluted 1:5 with water). BSA standards of 25 ng, 50 ng, 100 ng, 200 ng and 250 ng were also used to the plate and mixed with the reagent. The plate was read in a plate reader at 600 nm and samples were calibrated to the standards to determine the concentration of protein. Using the NuPAGE system (Invitrogen), 25 ug of protein was mixed with NuPAGE LDS 4× Sample Buffer (#NP0007), NuPAGE 10× Reducing Agent (#NP0004) and water, mixed well and heated at 96° C. for 15 minutes to denature the protein. The samples were then loaded into 4-12% Bis-Tris gels (Novex (Invitrogen), #0323) with a protein ladder (Novex (Invitrogen) Sharp Pre-stained protein ladder, #57318) and run at 100-120V for about 2 hours with NuPAGE 20×SDS MES Running Buffer (#NP0002) diluted with water. Next, the gel was taken out and loaded into a NuPAGE transfer cassette with a polyvinylidene membrane with NuPAGE 20× Transfer Buffer (#NP0006-1) diluted with water and methanol. Proteins were transferred for 1 hour at 30V at room temperature. Blocking was performed using the Millipore SNAP i.d. Protein Detection system in 0.25% non-fat dry milk in 0.1% Tween in PBS (PBST). […] Protein signals were detected using ECL Western Blotting Substrate (Pierce, #32106) and filmed.
BMI1 levels in GBM spheres were then analyzed by Western Blotting over a time-course of 120 hours upon treatment with compound 14 at 7-10 nM conc. […]

[2] = 72 h, read-out: IC50, antitumor activity against glioblastoma patient derived spheres
[3] = read-out: Potency in patient derived GBM spheres

Compound	IC50 [1, 2] [nM]	IC50 [1, 3] [nM]	STAT1 protein levels (STAT1)	BMI1 levels (BMI1)	IC50 ([1]; MTT, 72 hours, figure legends, read-out: IC50, antitumor activity against glioblastoma patient derived spheres) [nM]	IC50 ([1]; summary data, read-out: Potency in patient derived GBM spheres) [nM]	BMI1 protein levels, time-course (BMI1; 7-10 nM, single treatment, time-course of 120 hours)
Cc1nc2ccccn2c1-c1csc(Nc2ccc3c(c2)OC(F)(F)O3)n1 [Compound 16, N-(2,2-difluorobenzo[d][1,3]dioxol-5-yl)-4-(2-methylimidazo[1,2-a]pyridin-3-yl)thiazol-2-amine hydrochloride]	200	10					
[2H]C1([2H])Oc2ccc(Nc3nc(-c4c(C)nc5ccccn45)cs3)cc2O1 [Compound 17, N-(benzo[d][1,3]dioxol-5-yl-2,2-d2)-4-(2-methylimidazo[1,2-c]pyridin-3-yl)thiazol-2-amine hydrochloride]	20	10	lowered STAT1	Lowered BMI1 levels			
COc1c(F)cc(Nc2nc(-c3c(C)nc4ccccn34)cs2)cc1F [Compound 14, hydrochloride]			lowered STAT1	Lowered BMI1 levels	7	10	reduction in BMI1 protein levels at 72, 96 and 120 hours
[2H]C([2H])([2H])Oc1ccc(Nc2nc(-c3c(C)nc4ccccn34)cs2)cc1 [Compound 15, N-(4-(methoxy-d3)phenyl)-4-(2-methylimidazo[1,2-c]pyridin-3-yl)thiazol-2-amine hydrochloride]	7	1000	lowered STAT1	slightly lowered BMI1 levels			
